Experimental data published in paper PMC3369139, “Preclinical evaluation of two ^68Ga-siderophores as potential radiopharmaceuticals for Aspergillus fumigatus infection imaging” (European Journal of Nuclear Medicine and Molecular Imaging, 2012).
“And” between values parts separate entries of the source, which are not always exact repeats. Identical values can stand only once.

Assays:
[1] = Metabolic stability in normal Balb/c mice (RP-HPLC of urine, blood, liver and kidney homogenates); format: in vivo; conditions: 30 min p.i., % intact on RP-HPLC
Protocol: Urine, blood, liver and kidneys of normal Balb/c mice injected with ^68Ga-siderophores and treated as described previously were collected 30 min after injection. The urine sample was directly injected onto the RP-HPLC column. Blood samples were precipitated with acetonitrile and centrifuged for 2 min, and the supernatant was injected onto the RP-HPLC column. Liver and kidneys were washed in the ice-cold TRIS buffer and liquidized using a mixer in a falcon tube containing 1 ml of TRIS buffer. The liver and kidney homogenates obtained were mixed with acetonitrile and centrifuged for 2 min, and the supernatant was injected onto the RP-HPLC column. In all cases 1 min fractions of the column eluate were collected and measured in a γ-counter. Samples were not collected at 90 min after injection because the measured activity was already low in the samples obtained 30 min after injection. All metabolic studies were performed using a previously described HPLC method.

A. fumigatus [2] = assay: Ex vivo biodistribution in rat A. fumigatus infection model, standard; design: species or system Lewis rats
Protocol: (§1) The A. fumigatus (A29) isolate was grown on Sabouraud dextrose agar (BD) for 5 days at 37 °C, and the conidia were harvested in 2 ml of sterile NaCl by gently rubbing with a pipette tip. The conidia suspension was transferred into a sterile 50 ml plastic tube. After homogenization (vortex) and filtration (40 μm nylon cell strainer; BD), the suspension was counted in a Neubauer chamber and adjusted to the volitional concentration in the range 1 × 10^5 to 1 × 10^9 conidia per millilitre.
(§2) Female or male Lewis rats (2–3 months old), weighing 200–250 g, were treated as described previously. Briefly, the rats received repeated intraperitoneal injections of cyclophosphamide to induce neutropenia before A. fumigatus administration. To prevent bacterial superinfection, the animals were given antibiotics throughout the experiment. Fungal infection was established by intratracheal administration of 100–300 μl of A. fumigatus inoculum in various concentrations (1 × 10^5 to 1 × 10^9 conidia per millilitre). Animals were injected intravenously 1–3 days (depending on the severity of infection) after A. fumigatus administration with ^68Ga-labelled siderophore (10–20 MBq and 1–2 μg of siderophore per rat). The rats were imaged or killed by overdosing with thiopental (Sandoz, Kundl, Austria) 2 h after injection. Various organs and tissues (blood, spleen, kidneys, liver and lungs) were removed and radioactivity was measured in a γ-counter. The excised organs were investigated for the presence of fungi, as described below.
(§3) The excised organs were homogenized in a petri dish using a sterile surgical blade and transferred to Sabouraud dextrose agar (BD) plates. The plates were incubated at 37 °C and examined daily for 7 days. […] Severe infection was defined as the presence of severe fungal growth 1 day after incubation, mild infection was defined as the presence of minor growth up to 3 days after incubation, and no infection was defined as lack of growth within 1 week of incubation.

[3] = Biodistribution in normal Balb/c mice; format: in vivo; conditions: normal noninfected Balb/c mice, i.v. tail vein
Protocol: Normal noninfected Balb/c mice (female, 6 weeks old) were injected with ^68Ga-siderophore (2 MBq and 0.1–0.2 μg of siderophore per mouse) into the tail vein. Animals were killed by cervical dislocation 30 min and 90 min after injection. The organs and tissues (blood, spleen, pancreas, stomach, intestines, kidneys, liver, heart, lungs, muscle and femur) were removed and radioactivity was counted in a γ-counter. The results are expressed as percentage of injected dose per gram of tissue.

[4] = Log P of ^68Ga-siderophores; format: physicochemical; conditions: determined as described previously [20]
Protocol: (§4) TAFC and FOXE were labelled with ^68Ga using acetate buffer at room temperature for 15 min (TAFC) and at 80 °C for 20 min (FOXE). For all in vitro and in vivo studies, the pH of the final product was adjusted with 1.1 M sodium acetate to pH 6–7. The radiochemical purity, log P, protein binding and stability of ^68Ga-siderophores in various media were determined, as described previously.

Stability in 0.1 M FeCl3 = format: physicochemical
Protocol: as §4

A. fumigatus [5] = assay: Ex vivo biodistribution in rat A. fumigatus infection model, iron preload; design: species or system Lewis rats
Protocol: as §1, §2
Rats were treated as in the ‘standard’ infection model above, except that iron solution (FerMed; Medice, Iserlohn, Germany) 10 mg/kg was injected intraperitoneally three times (1 week, 4 days and 1 day) before A. fumigatus administration.
as §3

[6] = system: A. fumigatus wild-type ATCC46645; assay: In vitro uptake of ^68Ga-siderophores by A. fumigatus cultures; format: cell-based, Aspergillus fumigatus; conditions: room temperature
Protocol: The Aspergillus strain used for in vitro studies was A. fumigatus wild-type ATCC46645 (American Type Culture Collection) cultured at 37 °C in Aspergillus minimal medium, containing 1 % glucose as the carbon source, 20 mM glutamine as the nitrogen source, salts and trace elements, as described previously. Iron-sufficient media contained […] FeSO4. For preparation of iron-deficient media, iron addition was omitted. Iron-deficient conditions were verified by detection of extracellular siderophore production, which is suppressed by iron.
Uptake by A. fumigatus in iron-deficient and iron-sufficient cultures was studied. For the monitoring of uptake over time, ^68Ga-siderophores (5 ng) were incubated in microbial media for 10, 20, 30, 45, 60 and 90 min at room temperature in 96-well plates (Millipore, Billerica, MA). For the monitoring of uptake blocking, excess of ferri-siderophore (Fe-TAFC or Fe-FOXE) and/or sodium azide was used. ^68Ga-siderophores were incubated in iron-deficient and iron-sufficient media for 45 min at room temperature in 96-well plates. The incubation was interrupted in both cases by filtration of the medium and rapid rinsing with ice-cold TRIS buffer. The filters were collected and counted in a γ-counter.

[7] = Protein binding in human serum; format: in vitro ADME
Protocol: as §4

Stability in human serum = format: in vitro ADME
Protocol: as §4

A. fumigatus [8] = assay: PET imaging in rat A. fumigatus infection model; format: in vivo, Lewis rats; conditions: infected rats, lungs, calculated from all PET imaging studies, mean ± sd, n=13
Protocol: as §2
PET images were acquired with an Inveon animal PET/CT scanner (Siemens Preclinical Solutions, Knoxville, TN) with an intrinsic spatial resolution of 1.5 mm. The animals were placed in a prone position. Static PET images were acquired over 30 min starting 30 min after intravenous injection of ^68Ga-siderophore. Dynamic PET imaging was started upon injection and continued up to 60 min after injection. In addition, combined PET/CT scans were performed for anatomical reference. PET emission scans were acquired for 30 min, preceded by CT scans (spatial resolution 113 μm, 80 kV, 500 μA, exposure time 300 ms). After imaging, animals were killed by CO2/O2. Scans were reconstructed using Inveon Acquisition Workplace software (version 1.5; Siemens Preclinical Solutions, Knoxville, TN) using a 3-D ordered subset expectation maximization/maximum a posteriori (OSEM3D/MAP) algorithm with the following parameters: matrix 256 × 256 × 159, pixel size 0.43 × 0.43 × 0.8 mm^3 and a MAP prior β-value of 1.5.

Stability in 6 mM DTPA = format: physicochemical
Protocol: as §4

[9] = iron preload model, 2 h after injection

## CC(=O)NC1CCCN([O-])C(=O)C=C(C)CCOC(=O)C(NC(C)=O)CCCN([O-])C(=O)C=C(C)CCOC(=O)C(NC(C)=O)CCCN([O-])C(=O)C=C(C)CCOC1=O.[68Ga+3] (stereo not shown) [^68Ga-TAFC, triacetylfusarinine C]
[1]
  Stability in kidney homogenate (%): 96.7%
  Stability in liver homogenate (%): 98.1%
[1]; γ-counter
  Stability in urine (%): 97.6%
[1]; acetonitrile precipitation
  Stability in blood (%): 98.7%
A. fumigatus [2]; 2 h after injection
  Lung/blood ratio, control (mean ± sd): 1.34 ± 0.22 (n=9)
  Lung/blood ratio, mild infection (mean ± sd): 3.82 ± 2.89 (n=3)
  Lung/blood ratio, severe infection (mean ± sd): 15.11 ± 11.37 (n=4)
  Lung/kidneys ratio, control (mean ± sd): 0.07 ± 0.03 (n=9)
  Lung/kidneys ratio, mild infection (mean ± sd): 0.16 ± 0.14 (n=3)
  Lung/kidneys ratio, severe infection (mean ± sd): 1.40 ± 0.76 (n=4)
  Lung/liver ratio, control (mean ± sd): 0.84 ± 0.48 (n=9)
  Lung/liver ratio, mild infection (mean ± sd): 4.81 ± 2.70 (n=3)
  Lung/liver ratio, severe infection (mean ± sd): 14.29 ± 6.10 (n=4)
A. fumigatus [2]; mildly infected rats, lungs ex vivo 2 h after injection, n in cell
  Mild infection (%ID/g - lungs) (mean ± sd): 0.29 ± 0.12 %ID/g and 0.29 ± 0.12 (n=3) %ID/g
A. fumigatus [2]; rats showing no infection, lungs ex vivo 2 h after injection, n in cell
  Control (%ID/g - lungs) (mean ± sd): 0.04 ± 0.01 %ID/g and 0.04 ± 0.01 (n=9) %ID/g
A. fumigatus [2]; severely infected rats, lungs ex vivo 2 h after injection, γ-counter, n in cell
  Severe infection (%ID/g - lungs) (mean ± sd): 0.95 ± 0.37 %ID/g and 0.95 ± 0.37 (n=4) %ID/g
[3]; 30 min after injection
  Blood level: 1.6 ± 0.37 %ID/g
  Intestinal accumulation: 1.7 ± 1.04 %ID/g
[3]; 90 min after injection
  Intestinal accumulation: 1.0 ± 0.26 %ID/g
[4]
  Log P: −2.59
Stability in 0.1 M FeCl3; incubation time 30 min
  Stability in 0.1-M FeCl3 (%): 99.4%
Stability in 0.1 M FeCl3; incubation time 60 min
  Stability in 0.1-M FeCl3 (%): 98.5%
Stability in 0.1 M FeCl3; incubation time 120 min
  Stability in 0.1-M FeCl3 (%): 99.3%
A. fumigatus [5]; iron preload model (10 mg/kg i.p. three times), severely infected rats, lungs 2 h after injection, n in cell
  Severe infection (%ID/g - lungs): 0.64 (n=1) %ID/g
A. fumigatus [5]; [9]
  Lung/blood ratio, control: 0.99 (n=1)
  Lung/blood ratio, mild infection: 5.35 (n=2)
  Lung/blood ratio, severe infection: 1.41 (n=1)
  Lung/kidneys ratio, control: 0.08 (n=1)
  Lung/kidneys ratio, mild infection: 0.31 (n=2)
  Lung/kidneys ratio, severe infection: 0.07 (n=1)
  Lung/liver ratio, control: 0.76 (n=1)
  Lung/liver ratio, mild infection: 4.53 (n=2)
  Lung/liver ratio, severe infection: 3.49 (n=1)
A. fumigatus [5]; iron preload model, mildly infected rats, lungs 2 h after injection, n in cell
  Mild infection (%ID/g - lungs): 0.27 (n=2) %ID/g
A. fumigatus [5]; iron preload model, rats showing no infection, lungs 2 h after injection, n in cell
  Control (%ID/g - lungs): 0.04 (n=1) %ID/g
[6]; 5 ng ^68Ga-siderophore, 10-90 min, 96-well plates, filtration, γ-counter
  Uptake by A. fumigatus in iron-deficient cultures: rapid uptake
[6]; iron-deficient cultures, 45 min incubation
  Blocking of uptake with excess of ferri-siderophore and/or sodium azide: could be blocked
[7]; incubation time 30 min
  Protein binding (%): 0.47%
[7]; incubation time 60 min
  Protein binding (%): 0.76%
[7]; incubation time 120 min
  Protein binding (%): 1.21%
Stability in human serum; incubation time 30 min
  Stability in human serum (%): 99.9%
Stability in human serum; incubation time 60 min
  Stability in human serum (%): 99.9%
Stability in human serum; incubation time 120 min
  Stability in human serum (%): 99.9%
A. fumigatus [8]
  Target/non-target ratio: 5.81 ± 6.05 (n=13)
Stability in 6 mM DTPA; incubation time 30 min
  Stability in 6-mM DTPA (%): 85.0%
Stability in 6 mM DTPA; incubation time 60 min
  Stability in 6-mM DTPA (%): 84.7%
